According to ChEMBL document CHEMBL3885861, “Open TG-GATES”:

Species on record: Rattus norvegicus
Assay: Open TG-GATES - Regimen: Single
Assay type: toxicity, organism-based, Sprague-Dawley
Set-up: regimen Single, gender Male, age 6 weeks
Settings: in vivo, po, 300 mg/kg, route gavage, dose level Middle; for APTT / Bas / Eos / Fbg / Hb / Ht / Lym / MCH / MCHC / MCV / Mono / Neu / PT / Plat / RBC / Ret / WBC: tissue Blood; for KIDNEY_L / KIDNEY_R / KIDNEY_TOTAL: tissue Kidney; for LIVER: tissue Liver; for A/G / ALP / ALT / AST / BUN / CRE / Ca / Cl / DBIL / GLC / IP / K / LDH / Na / PL / RALB / TBIL / TC / TG / TP / gamma-GTP: tissue Plasma

Compound `O=C(OC[C@H]1O[C@@H](OC(=O)c2cc(O)c(O)c(OC(=O)c3cc(O)c(O)c(O)c3)c2)[C@H](OC(=O)c2cc(O)c(O)c(OC(=O)c3cc(O)c(O)c(O)c3)c2)[C@@H](OC(=O)c2cc(O)c(O)c(OC(=O)c3cc(O)c(O)c(O)c3)c2)[C@@H]1OC(=O)c1cc(O)c(O)c(OC(=O)c2cc(O)c(O)c(O)c2)c1)c1cc(O)c(O)c(OC(=O)c2cc(O)c(O)c(O)c2)c1` [TANNIC ACID] has a TERMINAL_BW (3 h) of 187.9 g, an APTT (3 h) of 16.5 s and a Bas (3 h) of 0%. For the same compound, the Eos (3 h) was 1%, the Fbg (3 h) was 212 mg/dL and the Hb (3 h) was 12.7 g/dL. It also gave a Ht (3 h) of 37.9%, a Lym (3 h) of 78.6% and an MCH (3 h) of 21.9 pg. The MCHC (3 h) was 33.4%, the MCV (3 h) was 65.5 fL and the Mono (3 h) was 7.6%. The Neu (3 h) was 13.4%, the PT (3 h) was 11.6 s and the Plat (3 h) was 101.9 x10_4/uL. The RBC (3 h) was 579.2 x10_4/ul, the Ret (3 h) was 9.9% and the WBC (3 h) was 113.5 x10_2/uL. For the same compound, the KIDNEY_L (3 h) was 0.9 g, the KIDNEY_R (3 h) was 0.9 g and the KIDNEY_TOTAL (3 h) was 1.8 g. For the same compound, the LIVER (3 h) was 8.5 g, the A/G (3 h) was 2.2 and the ALP (3 h) was 1029.8 IU/L. It also gave an ALT (3 h) of 37.6 IU/L, an AST (3 h) of 68.6 IU/L and a BUN (3 h) of 13.6 mg/dL. For the same compound, the CRE (3 h) was 0.5 mg/dL, the Ca (3 h) was 10.7 mg/dL and the Cl (3 h) was 105 meq/L. For the same compound, the DBIL (3 h) was 0.02 mg/dL, the GLC (3 h) was 198 mg/dL and the IP (3 h) was 10.6 mg/dL. It also gave a K (3 h) of 4.7 meq/L, an LDH (3 h) of 85.8 IU/L and a Na (3 h) of 139.6 meq/L. It also gave a PL (3 h) of 148.4 mg/dL, an RALB (3 h) of 3.7 g/dL and a TBIL (3 h) of 0.5 mg/dL. For the same compound, the TC (3 h) was 81.6 mg/dL, the TG (3 h) was 42.4 mg/dL and the TP (3 h) was 5.3 g/dL. It also gave a gamma-GTP (3 h) of 1.2 IU/L, a TERMINAL_BW (6 h) of 184.2 g and an APTT (6 h) of 16.5 s. It also gave a Bas (6 h) of 0%, an Eos (6 h) of 1% and a Fbg (6 h) of 214.4 mg/dL. The Hb (6 h) was 13 g/dL, the Ht (6 h) was 39.1% and the Lym (6 h) was 75.4%. It also gave an MCH (6 h) of 22 pg, an MCHC (6 h) of 33.3% and an MCV (6 h) of 66.1 fL. The Mono (6 h) was 8.6%, the Neu (6 h) was 15.2% and the PT (6 h) was 12 s. The Plat (6 h) was 112.5 x10_4/uL, the RBC (6 h) was 591.4 x10_4/ul and the Ret (6 h) was 9.6%. It also gave a WBC (6 h) of 93 x10_2/uL, a KIDNEY_L (6 h) of 0.9 g and a KIDNEY_R (6 h) of 0.9 g. The KIDNEY_TOTAL (6 h) was 1.8 g, the LIVER (6 h) was 8.2 g and the A/G (6 h) was 1.9. It also gave an ALP (6 h) of 784.6 IU/L, an ALT (6 h) of 38.4 IU/L and an AST (6 h) of 67.2 IU/L. It also gave a BUN (6 h) of 12.2 mg/dL, a CRE (6 h) of 0.5 mg/dL and a Ca (6 h) of 10.6 mg/dL. The Cl (6 h) was 105.6 meq/L, the DBIL (6 h) was 0.03 mg/dL and the GLC (6 h) was 184.2 mg/dL. It also gave an IP (6 h) of 10.2 mg/dL, a K (6 h) of 4.8 meq/L and an LDH (6 h) of 106.8 IU/L. The Na (6 h) was 139.2 meq/L, the PL (6 h) was 133 mg/dL and the RALB (6 h) was 3.4 g/dL. For the same compound, the TBIL (6 h) was 0.6 mg/dL, the TC (6 h) was 74.4 mg/dL and the TG (6 h) was 32 mg/dL. For the same compound, the TP (6 h) was 5.2 g/dL, the gamma-GTP (6 h) was 1.4 IU/L and the TERMINAL_BW (9 h) was 182 g. For the same compound, the APTT (9 h) was 16.4 s, the Bas (9 h) was 0% and the Eos (9 h) was 1%. It also gave a Fbg (9 h) of 219.8 mg/dL, a Hb (9 h) of 13 g/dL and a Ht (9 h) of 39%. For the same compound, the Lym (9 h) was 74.8%, the MCH (9 h) was 21.9 pg and the MCHC (9 h) was 33.3%. For the same compound, the MCV (9 h) was 65.9 fL, the Mono (9 h) was 6.8% and the Neu (9 h) was 17.2%. For the same compound, the PT (9 h) was 12.1 s, the Plat (9 h) was 122.2 x10_4/uL and the RBC (9 h) was 592.8 x10_4/ul. It also gave a Ret (9 h) of 11%, a WBC (9 h) of 92.9 x10_2/uL and a KIDNEY_L (9 h) of 0.8 g. It also gave a KIDNEY_R (9 h) of 0.8 g, a KIDNEY_TOTAL (9 h) of 1.6 g and an LIVER (9 h) of 7.5 g. For the same compound, the A/G (9 h) was 2.1, the ALP (9 h) was 836.4 IU/L and the ALT (9 h) was 35 IU/L. It also gave an AST (9 h) of 60.6 IU/L, a BUN (9 h) of 12.6 mg/dL and a CRE (9 h) of 0.4 mg/dL. It also gave a Ca (9 h) of 10.4 mg/dL, a Cl (9 h) of 105.4 meq/L and a DBIL (9 h) of 0.034 mg/dL. It also gave a GLC (9 h) of 191.4 mg/dL, an IP (9 h) of 10 mg/dL and a K (9 h) of 5.1 meq/L. The LDH (9 h) was 92.2 IU/L, the Na (9 h) was 137.2 meq/L and the PL (9 h) was 126.8 mg/dL. For the same compound, the RALB (9 h) was 3.7 g/dL, the TBIL (9 h) was 0.5 mg/dL and the TC (9 h) was 70.4 mg/dL. For the same compound, the TG (9 h) was 32.4 mg/dL, the TP (9 h) was 5.4 g/dL and the gamma-GTP (9 h) was 1.8 IU/L. For the same compound, the TERMINAL_BW (24 h) was 201.5 g, the APTT (24 h) was 15.9 s and the Bas (24 h) was 0%. It also gave an Eos (24 h) of 0.8%, a Fbg (24 h) of 217.8 mg/dL and a Hb (24 h) of 13 g/dL. It also gave a Ht (24 h) of 38.9%, a Lym (24 h) of 75% and an MCH (24 h) of 22 pg. For the same compound, the MCHC (24 h) was 33.4%, the MCV (24 h) was 65.8 fL and the Mono (24 h) was 8.2%. It also gave a Neu (24 h) of 16.2%, a PT (24 h) of 11.7 s and a Plat (24 h) of 110.3 x10_4/uL. It also gave an RBC (24 h) of 591.6 x10_4/ul, a Ret (24 h) of 9.5% and a WBC (24 h) of 114.2 x10_2/uL. It also gave a KIDNEY_L (24 h) of 0.9 g, a KIDNEY_R (24 h) of 0.9 g and a KIDNEY_TOTAL (24 h) of 1.8 g. The LIVER (24 h) was 10.2 g, the A/G (24 h) was 1.7 and the ALP (24 h) was 852.4 IU/L. The ALT (24 h) was 44.4 IU/L, the AST (24 h) was 67.8 IU/L and the BUN (24 h) was 18.4 mg/dL. For the same compound, the CRE (24 h) was 0.5 mg/dL, the Ca (24 h) was 10.8 mg/dL and the Cl (24 h) was 103.8 meq/L. The DBIL (24 h) was 0.002 mg/dL, the GLC (24 h) was 193.8 mg/dL and the IP (24 h) was 9.1 mg/dL. For the same compound, the K (24 h) was 4.4 meq/L, the LDH (24 h) was 109.6 IU/L and the Na (24 h) was 138.8 meq/L. It also gave a PL (24 h) of 139 mg/dL, an RALB (24 h) of 3.5 g/dL and a TBIL (24 h) of 0.3 mg/dL. It also gave a TC (24 h) of 75.2 mg/dL, a TG (24 h) of 103.8 mg/dL and a TP (24 h) of 5.6 g/dL. It also gave a gamma-GTP (24 h) of 1.2 IU/L.
